Laboratory results from patent US9101133B2, “Phenyl-substituted bicyclooctane-1,3-dione-derivatives” (BAYER INTELLECTUAL PROPERTY GMBH, priority 2010, dated 2015).

Tests used:
[1] = tested on: monocotylidonous and dicotylidonous weed and crop plants; assay: Herbicidal pre-emergence action; format: in vivo; details: 320 g/ha, visual assessment after three weeks, 100% = plants have died; for herbicidal effect in percent, ALOMY: ALOMY = Alopecurus myosuroides; for herbicidal effect in percent, AVEFA: AVEFA = Avena fatua; for herbicidal effect in percent, LOLMU: LOLMU = Lolium multiflorum; for herbicidal effect in percent, SETVI: SETVI = Setaria viridis; for herbicidal effect in percent, ECHCG: ECHCG = Echinochloa crus-galli; for herbicidal effect in percent, VIOTR: VIOTR = Viola tricolor
Excerpt: 1. Herbicidal Pre-Emergence Action
• Seeds of monocotylidonous and dicotylidonous weed and crop plants are placed in sandy loam in wood fibre pots and covered with soil. The test compounds, formulated in the form of wettable powders (WP), are then, as an aqueous suspension with a water application rate of 600 l/ha (converted), with 0.2% of wetting agent added, applied to the surface of the covering soil in different amounts. • After the treatment, the pots are placed in a greenhouse and kept under good growth conditions for the test plants. The visual assessment of the emergence damage on the test plants is carried out after a trial period of three weeks by comparison with the untreated controls (herbicidal effect in percent: 100% effect=the plants have died, 0% effect=like control plants).

AVEFA = assay: Herbicidal post-emergence action; format: in vivo; details: 80 g/ha, visual assessment after about three weeks, 100% = plants have died
Experimental: (§1) 2. Herbicidal Post-Emergence Action
(§2) • Seeds of monocotylidonous and dicotylidonous weed and crop plants are placed in sandy loam in wood fibre pots, covered with soil and cultivated in a greenhouse under good growth conditions. Two to three weeks after sowing, the test plants are treated at the one-leaf stage. The test compounds, formulated as wettable powders (WP), are then with a water application rate of 600 l/ha (converted), with 0.2% of wetting agent added, sprayed onto the green parts of the plants in different amounts. After the test plants have been kept in the greenhouse under optimum growth conditions for about three weeks, the effect of the preparations is assessed visually in comparison to untreated controls (herbicidal effect in percent: 100% effect=the plants have died, 0% effect=like control plants). Post-Emergence, 80 g/ha

ECHCG = assay: Herbicidal post-emergence action; format: in vivo; details: 80 g/ha, visual assessment after about three weeks, 100% = plants have died
Experimental: as §1, §2

ALOMY = assay: Herbicidal post-emergence action; format: in vivo; details: 80 g/ha, visual assessment after about three weeks, 100% = plants have died
Experimental: as §1, §2

SETVI = assay: Herbicidal post-emergence action; format: in vivo; details: visual assessment after about three weeks, 100% = plants have died; for pest or weed control at 80 g/ha: 504 h, read-out: herbicidal effect in percent, SETVI; for herbicidal effect in percent, SETVI: 80 g/ha
Experimental: as §1, §2

LOLMU = assay: Herbicidal post-emergence action; format: in vivo; details: 80 g/ha, visual assessment after about three weeks, 100% = plants have died
Experimental: as §1, §2

POLCO = assay: Herbicidal post-emergence action; format: in vivo; details: 80 g/ha, visual assessment after about three weeks, 100% = plants have died
Experimental: as §1, §2

VERPE = assay: Herbicidal post-emergence action; format: in vivo; details: 80 g/ha, visual assessment after about three weeks, 100% = plants have died
Experimental: as §1, §2

[2] = tested on: larvae of the mustard beetle (Phaedon cochleariae); assay: Phaedon test (PHAECO spray treatment); format: in vivo; details: application rate of 500 g/ha; Chinese cabbage leaf discs sprayed; after 7 days
Experimental: Phaedon Test […] Spray Treatment Solvents: 78.0 parts by weight of acetone • • 1.5 parts by weight of dimethylformamide Emulsifier: 0.5 part by weight of alkylaryl polyglycol ether To produce a suitable preparation of active compound, one part by weight of active compound is mixed with the stated amounts of solvents and emulsifier, and the concentrate is diluted with emulsifier-containing water to the desired concentration. Discs of Chinese cabbage leaves (Brassica pekinensis) are sprayed with an active compound preparation of the desired concentration and, after drying, populated with larvae of the mustard beetle (Phaedon cochleariae).

[3] = tested on: green peach aphid (Myzus persicae); assay: Myzus test (MYZUPE spray treatment); format: in vivo; details: application rate of 500 g/ha; Chinese cabbage leaf discs sprayed; after 6 days
Experimental: Solvents: 78 parts by weight of acetone
• 1.5 parts by weight of dimethylformamide Emulsifier: 0.5 part by weight of alkylaryl polyglycol ether
To produce a suitable preparation of active compound, one part by weight of active compound is mixed with the stated amounts of solvents and emulsifier, and the concentrate is diluted with emulsifier-containing water to the desired concentration.
Discs of Chinese cabbage leaves (Brassica pekinensis) which are infested by all stages of the green peach aphid (Myzus persicae) are sprayed with an active compound preparation of the desired concentration.
After 6 days, the effect in % is determined 100% means that all aphids have been killed; 0% means that none of the aphids have been killed.

Row | melting point [°C] | Structure (SMILES) | herbicidal effect in percent, ALOMY [1] [%] | herbicidal effect in percent, AVEFA [1] [%] | herbicidal effect in percent, LOLMU [1] [%] | herbicidal effect in percent, SETVI [1] [%] | herbicidal effect in percent, AVEFA (AVEFA) [%] | herbicidal effect in percent, ECHCG (ECHCG) [%] | herbicidal effect in percent, ALOMY (ALOMY) [%] | pest or weed control at 80 g/ha (SETVI) [%] | herbicidal effect in percent, LOLMU (LOLMU) [%] | herbicidal effect in percent, ECHCG [1] [%] | herbicidal effect in percent, SETVI (SETVI) [%] | herbicidal effect in percent, POLCO (POLCO) [%] | herbicidal effect in percent, STEME ([1]; STEME = Stellaria media) [%] | herbicidal effect in percent, VERPE ([1]; VERPE = Veronica persica) [%] | herbicidal effect in percent, VIOTR [1] [%] | herbicidal effect in percent, VERPE (VERPE) [%] | effect in % (beetle larvae killed) [2] [%] | effect in % (aphids killed) [3] [%]
1 | – | CCc1cc(C)cc(CC)c1C1C(=O)C2CC(C3OCCCO3)CC2C1=O (stereo not shown) [I-a-5, 2-(2,6-Diethyl-4-methylphenyl)-5-(1,3-dioxan-2-yl)tetrahydropentalene-1,3(2H,3aH)-dione] | 100 | 90 | 100 | 90 | 100 | 100 | 100 | 100 | 100 | – | – | – | – | – | – | – | – | –
2 | – | CCc1cc(C)cc(CC)c1C1C(=O)C2CC(OC)CC2C1=O (stereo not shown) [I-a-22] | 100 | 90 | 100 | 100 | 100 | 100 | 100 | – | 100 | 100 | 100 | – | – | – | – | – | – | –
3 | – | CCc1cc(C)cc(CC)c1C1=C(OC(=O)C(C)(C)C)C2CC(C(OC)OC)CC2C1=O (mixture of isomers) [I-b-5] | 100 | 100 | 100 | 90 | 100 | 100 | 100 | – | 100 | 100 | 100 | – | – | – | – | – | – | –
4 | – | CCc1cc(C)cc(CC)c1C1C(=O)C2CC(COCOC)CC2C1=O (stereo not shown) [I-a-40, 2-(2,6-diethyl-4-methylphenyl)-5-methoxymethoxymethyltetrahydropentalene-1,3-dione] | – | – | – | – | 90 | – | 100 | 90 | 100 | – | – | 100 | – | – | – | – | – | –
5 | – | CCc1cc(C)cc(CC)c1C1=C(O)C2CC(C=NOC)CC2C1=O (stereo not shown) [I-a-13, 5-(2,6-diethyl-4-methylphenyl)-6-hydroxy-4-oxo-1,2,3,3a,4,6a-hexahydropentalene-2-carbaldehyde O-methyloxime] | – | 80 | 100 | – | 100 | 100 | 100 | 100 | 100 | – | – | – | 100 | 90 | 100 | – | – | –
6 | – | CCc1cc(C)cc(CC)c1C1C(=O)C2CC(C#N)CC2C1=O (stereo not shown) [I-a-4, 5-(2,6-Diethyl-4-methylphenyl)-4,6-dioxooctahydropentalene-2-carbonitrile] | – | – | – | 90 | 90 | 100 | 50 | 100 | 60 | 100 | – | – | – | – | – | – | – | –
7 | – | CCc1cc(C)cc(CC)c1C1C(=O)C2CC(CO)CC2C1=O (stereo not shown) [I-a-7] | – | 80 | 100 | – | 70 | 100 | 100 | – | 100 | 100 | 80 | – | – | – | – | – | – | –
8 | – | CCc1cc(C)cc(CC)c1C1C(=O)C2CC(C3OCCO3)CC2C1=O (stereo not shown) [I-a-10] | 100 | 90 | 100 | 100 | 100 | 100 | 100 | – | 100 | 100 | 100 | – | – | – | 90 | – | – | –
9 | 87 to 88 | C=C1CC2C(=O)C(c3c(CC)cc(C)cc3CC)=C(OCc3ccccc3)C2C1 (stereo not shown) [I-a-0, 3-(Benzyloxy)-2-(2,6-diethyl-4-methylphenyl)-5-methylene-4,5,6,6a-tetrahydropentalen-1(3aH)-one] | – | – | – | – | – | – | – | – | – | – | – | – | – | – | – | – | – | –
10 | – | CCc1cc(C)cc(CC)c1C1=C(OC(=O)C(C)(C)C)C2CC(C3OCCO3)CC2C1=O (mixture of isomers) [I-b-4] | 100 | 90 | 100 | 100 | 90 | 100 | 100 | – | 100 | 100 | 100 | – | – | – | 90 | – | – | –
11 | – | CCc1cc(C)cc(CC)c1C1=C(OC(=O)C(C)(C)C)C2CC(/C=N/OC)CC2C1=O (stereo not shown) [I-b-1, 2-(2,6-Diethyl-4-methylphenyl)-5-(methoxyimino)methyl-3-oxo-3,3a,4,5,6,6a-hexahydropentalen-1-yl 2,2-dimethylpropanoate] | 100 | 90 | 100 | 100 | 100 | 100 | 100 | 100 | 100 | 100 | – | – | – | – | 90 | – | – | –
12 | – | CCc1cc(C)cc(CC)c1C1C(=O)C2CC(CCC#N)CC2C1=O (mixture of isomers) [I-a-37] | – | – | – | – | 100 | 100 | 100 | – | 100 | – | 100 | – | – | – | – | 80 | – | –
13 | – | CCc1cc(C)cc(CC)c1C1C(=O)C2CC(COC(=O)NCc3ccccc3)CC2C1=O (mixture of isomers) [I-a-47] | – | – | – | – | – | – | – | – | – | – | – | – | – | – | – | – | 100 | –
14 | – | CCc1cc(C)cc(CC)c1C1C(=O)C2CC(COC(=O)Nc3ccccc3)CC2C1=O (mixture of isomers) [I-a-44] | – | – | – | – | – | – | – | – | – | – | – | – | – | – | – | – | 100 | –
15 | – | CCc1cc(C)cc(CC)c1C1=C(OCc2ccccc2)C2CC(C=CC#N)CC2C1=O (mixture of isomers) [I-a-59] | – | – | – | – | – | – | – | – | – | – | – | – | – | – | – | – | – | 100
16 | – | CCc1cc(C)cc(CC)c1C1C(=O)C2CC(O)CC2C1=O (stereo not shown) [I-a-23] | – | – | – | 90 | 60 | 100 | 70 | – | 90 | 100 | 100 | – | – | – | – | – | – | –
17 | – | CCOC(=O)OC1=C(c2c(CC)cc(C)cc2CC)C(=O)C2CC(C=CC#N)CC12 (mixture of isomers) [I-c-22] | – | – | – | – | 100 | 100 | 80 | – | – | – | 100 | – | – | – | – | 90 | – | 100
